Laboratory results reported in patent publication US20130090385A1, “NOVEL SPECIFIC CASPASE-10 INHIBITORS” (MERCK PATENT GESELLSCHAFT MIT BESCHRANKTER HAFTUNG, priority 2005, published 2013).
Read-outs that look alike come from different tables or passages of the source.

How the values were obtained:
[1] = target: T1, Recombinant human caspase-2 (Homo sapiens, UniProt P42575); experiment: delayed-time fluorescence caspase inhibition test, caspase-2
T1 sequence (P42575 1-452): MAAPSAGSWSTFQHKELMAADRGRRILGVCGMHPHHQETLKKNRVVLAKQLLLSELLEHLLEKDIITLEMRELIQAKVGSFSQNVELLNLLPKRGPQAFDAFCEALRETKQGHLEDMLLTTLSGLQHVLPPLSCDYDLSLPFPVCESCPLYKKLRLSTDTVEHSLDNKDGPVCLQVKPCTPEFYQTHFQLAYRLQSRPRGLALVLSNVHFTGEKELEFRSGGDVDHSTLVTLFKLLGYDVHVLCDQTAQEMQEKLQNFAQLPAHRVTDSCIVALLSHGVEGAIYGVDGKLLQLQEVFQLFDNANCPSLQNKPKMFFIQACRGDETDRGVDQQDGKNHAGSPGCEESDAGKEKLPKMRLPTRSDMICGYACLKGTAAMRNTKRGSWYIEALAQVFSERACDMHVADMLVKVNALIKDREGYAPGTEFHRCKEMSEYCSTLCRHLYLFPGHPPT
Experimental: (§1) The substrate used is a tetrapeptide specific to this caspase, having at one of its ends a fluorescent europium marker (W1284) and at the other end a europium chelate fluorescence quencher (QSy-7): Eu-W1284-CIETDK-QSy-7.
(§2) The caspase cleaves the substrate, releasing the quencher. Thus, by excitation at 340 nm, the signal emitted by the fluorescence of the europium is read by WALLAC Victor^2 reader at 615 nm.
(§3) They are ready for use or may be divided into aliquots and stored at −80° C.. […] 20 μl of this solution are distributed per well of the assay plate. […] The assay is performed with 1 U of enzyme per well, by distributing 20 μl of the diluted solution per well. • The standard inhibitors: The standard inhibitors are dissolved in DMSO to a concentration of 10 mM. They are tested at IC20 and at IC50 on the caspases they inhibit (see following table).
(§4) They are then distributed in the wells using this solution to reach the final concentration of IC20 or IC50, i.e. 3 μl in 33 μl of final reaction volume (dilution 1/11). Thus, the final concentration of DMSO in the well is 0.3% (v/v) final. […] An intermediate dilution (1/6.6) is prepared in DMSO by diluting 10 μl of the concentrated solution in 66 μl of DMSO (final volume). […] The inhibitors are then distributed in the wells to reach the final screening concentration (10 μM), i.e. 3 μl in 33 μl of final reaction volume (dilution 1/11) and a final concentration of DMSO of 0.3% (v/v) in the well. • Protocol:
(§5) The incubation takes place for 3 hours 30 minutes at room temperature before reading the fluorescence in delayed time on the WALLAC Victor^2 reader with the filters corresponding to the fluorescence of europium (excitation filter: 340 nm, emission filter: 615 nm).
(§6) The inhibitors are diluted using solutions with concentrations of less than 20 mM in DMSO, and then prediluted in the caspase buffer. […] The specificity factor for caspase-10 is calculated as the following ratio:

[2] = target: T2, Recombinant human caspase-3 (Homo sapiens, UniProt P42574); experiment: delayed-time fluorescence caspase inhibition test, caspase-3
T2 sequence (P42574 29-277): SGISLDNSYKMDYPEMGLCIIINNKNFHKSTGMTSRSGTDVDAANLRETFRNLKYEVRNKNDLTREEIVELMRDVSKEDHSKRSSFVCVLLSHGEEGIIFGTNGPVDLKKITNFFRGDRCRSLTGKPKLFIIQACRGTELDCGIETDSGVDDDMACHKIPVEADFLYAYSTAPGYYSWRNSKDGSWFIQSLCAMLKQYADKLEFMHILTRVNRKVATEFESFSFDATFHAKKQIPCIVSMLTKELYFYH
Experimental: as §1, §2
20 μl of this solution are distributed per well of the assay plate. […] The assay is performed with 1 U of enzyme per well, by distributing 20 μl of the diluted solution per well. • The standard inhibitors: The standard inhibitors are dissolved in DMSO to a concentration of 10 mM. They are tested at IC20 and at IC50 on the caspases they inhibit (see following table). The concentrations mentioned in the table are the final concentrations in the assay wells.
as §4
The volumes and the protocol were optimised for automated use.
as §5
The inhibitors are diluted using solutions with concentrations of less than 20 mM in DMSO, and then prediluted in the caspase buffer.

[3] = target: T3, Recombinant human caspase-6 (Homo sapiens, UniProt P55212); experiment: delayed-time fluorescence caspase inhibition test, caspase-6
T3 sequence (P55212 24-293): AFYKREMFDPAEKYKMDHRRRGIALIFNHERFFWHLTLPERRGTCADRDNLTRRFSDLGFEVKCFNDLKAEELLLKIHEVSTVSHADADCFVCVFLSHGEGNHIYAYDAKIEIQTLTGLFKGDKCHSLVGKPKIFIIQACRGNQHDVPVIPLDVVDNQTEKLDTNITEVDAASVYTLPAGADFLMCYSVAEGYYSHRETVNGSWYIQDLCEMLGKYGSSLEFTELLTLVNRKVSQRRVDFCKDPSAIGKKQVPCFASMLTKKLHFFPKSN
Experimental: as §1, §2, §3, §4, §5, §6

[4] = target: Recombinant human caspase-8 (Homo sapiens, UniProt Q14790); experiment: delayed-time fluorescence caspase inhibition test, caspase-8
Experimental: as §1, §2, §3, §4, §5, §6

[5] = target: T4, Recombinant human caspase-9 (Homo sapiens, UniProt P55211); experiment: delayed-time fluorescence caspase inhibition test, caspase-9
T4 sequence (P55211 1-416): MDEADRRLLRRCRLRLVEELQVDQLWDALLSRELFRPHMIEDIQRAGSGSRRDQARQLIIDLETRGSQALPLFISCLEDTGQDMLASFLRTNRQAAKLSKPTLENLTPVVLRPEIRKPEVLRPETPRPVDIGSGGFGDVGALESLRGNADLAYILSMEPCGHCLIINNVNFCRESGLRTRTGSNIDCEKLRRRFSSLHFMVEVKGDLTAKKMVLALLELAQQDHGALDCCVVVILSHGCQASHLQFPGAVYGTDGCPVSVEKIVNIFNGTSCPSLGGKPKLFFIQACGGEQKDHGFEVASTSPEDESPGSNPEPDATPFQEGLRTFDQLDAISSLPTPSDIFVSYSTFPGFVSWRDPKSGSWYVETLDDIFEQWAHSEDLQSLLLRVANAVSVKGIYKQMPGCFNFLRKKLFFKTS
Experimental: as §1, §2, §3, §4, §5, §6

[6] = target: T5, Recombinant human caspase-10 (Homo sapiens, UniProt Q92851); experiment: delayed-time fluorescence caspase inhibition test, caspase-10
T5 sequence (Q92851 220-521): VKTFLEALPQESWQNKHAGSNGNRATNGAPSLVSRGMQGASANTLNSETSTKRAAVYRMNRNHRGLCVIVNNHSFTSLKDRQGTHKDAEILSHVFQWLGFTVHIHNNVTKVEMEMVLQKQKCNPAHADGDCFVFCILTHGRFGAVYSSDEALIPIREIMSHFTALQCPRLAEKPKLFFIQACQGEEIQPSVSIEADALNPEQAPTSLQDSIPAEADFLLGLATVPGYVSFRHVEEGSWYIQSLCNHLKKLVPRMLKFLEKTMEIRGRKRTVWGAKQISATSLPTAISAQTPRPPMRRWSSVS
Experimental: as §1, §2, §3, §4, §5, §6

[7] = read-out: Inhibition IC50 Caspase-2, tested 100 nM to 200 μM, 1% DMSO, 3 h 30 min at room temperature
[8] = read-out: Inhibition IC50 Caspase-3, tested 100 nM to 200 μM, 1% DMSO, 3 h 30 min at room temperature
[9] = read-out: Inhibition IC50 Caspase-6, tested 100 nM to 200 μM, 1% DMSO, 3 h 30 min at room temperature
[10] = read-out: Inhibition IC50 Caspase-8, tested 100 nM to 200 μM, 1% DMSO, 3 h 30 min at room temperature
[11] = read-out: Inhibition IC50 Caspase-9, tested 100 nM to 200 μM, 1% DMSO, 3 h 30 min at room temperature
[12] = read-out: Inhibition IC50 Caspase-10, tested 100 nM to 200 μM, 1% DMSO, 3 h 30 min at room temperature

Sequence of Recombinant human caspase-8 (Q14790 217-479): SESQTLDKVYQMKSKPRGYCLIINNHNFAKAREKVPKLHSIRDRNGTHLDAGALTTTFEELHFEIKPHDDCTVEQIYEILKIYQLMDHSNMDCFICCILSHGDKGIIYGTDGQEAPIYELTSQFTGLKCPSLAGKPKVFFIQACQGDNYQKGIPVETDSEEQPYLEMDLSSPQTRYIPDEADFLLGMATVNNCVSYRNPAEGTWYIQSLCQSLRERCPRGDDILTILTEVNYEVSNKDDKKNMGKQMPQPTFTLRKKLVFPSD

SMILES | IC50 [1] | IC50 [2] | IC50 [3] | IC50 [4] | IC50 [5] | IC50 [6] | IC50 [1, 7] | IC50 [2, 8] | IC50 [3, 9] | IC50 [4, 10] | IC50 [5, 11] | IC50 [6, 12]
O=S(=O)(NCC1(Cc2ccc(CCO)cc2)CCCC1)c1ccc(Cl)cc1 [Example 33] |  |  |  |  |  |  | > 200 µM | > 200 µM | > 200 µM | > 200 µM | > 200 µM | 1.7 µM
CC(=O)c1ccc(S(=O)(=O)NCC2(Cc3ccc(CCO)cc3)CCCC2)cc1 [Example 35] | > 200 µM | > 200 µM | > 200 µM | > 200 µM | > 200 µM | 2.88 µM |  |  |  |  |  | 
CS(=O)(=O)c1ccc(S(=O)(=O)NCC2(Cc3ccc(CCO)cc3)CCCC2)cc1 [Example 36] | > 200 µM | > 200 µM | > 200 µM | > 200 µM | > 200 µM | 9.66 µM |  |  |  |  |  | 
CSc1ccc(S(=O)(=O)NCC2(Cc3ccc(CCO)cc3)CCCC2)cc1 [Example 43] | > 200 µM | > 200 µM | > 200 µM | > 200 µM | > 200 µM | 5.12 µM |  |  |  |  |  | 
COc1ccc(S(=O)(=O)NCC2(Cc3ccc(CCO)cc3)CCCC2)cc1 [Example 47] | > 200 µM | > 200 µM | > 200 µM | > 200 µM | > 200 µM | 5.51 µM |  |  |  |  |  | 
O=S(=O)(NCC1(Cc2ccc(CCO)cc2)CCCC1)c1ccc(C(F)(F)F)cc1 [Example 49] | > 200 µM | > 200 µM | > 200 µM | > 200 µM | > 200 µM | 3.14 µM |  |  |  |  |  | 
O=S(=O)(NCC1(Cc2ccc(CCO)cc2)CCCC1)c1ccc2ccccc2c1 [Example 51] | > 200 µM | > 200 µM | > 200 µM | > 200 µM | > 200 µM | 0.281 µM |  |  |  |  |  | 
O=[N+]([O-])c1ccc(S(=O)(=O)NCC2(Cc3ccc(CCO)cc3)CCCC2)cc1 [Example 52] | > 200 µM | > 200 µM | > 200 µM | > 200 µM | > 200 µM | 3.69 µM |  |  |  |  |  | 
O=S(=O)(NCC1(Cc2ccc(CCO)cc2)CCC1)c1ccc(Cl)cc1 [Example 56] | > 200 µM | > 200 µM | > 200 µM | > 200 µM | > 200 µM | 0.989 µM |  |  |  |  |  | 
Cc1ccc(S(=O)(=O)NCC2(Cc3ccc(CCO)cc3)CCC2)cc1 [Example 57] | > 200 µM | > 200 µM | > 200 µM | > 200 µM | > 200 µM | 3.05 µM |  |  |  |  |  | 
O=S(=O)(NCC1(Cc2ccc(CCO)cc2)CCCC1)c1c(F)c(F)c(F)c(F)c1F [Example 58] | > 200 µM | > 200 µM | > 200 µM | > 200 µM | 46.7 µM | 0.143 µM |  |  |  |  |  | 
O=S(=O)(NCC1(Cc2ccc(CCO)cc2)CCCC1)c1cc(F)c(F)c(F)c1 [Example 61] | > 200 µM | > 200 µM | > 200 µM | > 200 µM | > 200 µM | 1.79 µM |  |  |  |  |  | 
O=S(=O)(NCC1(Cc2ccc(CCO)cc2)CCCC1)c1ccc(Cl)c(C(F)(F)F)c1 [Example 65] | > 200 µM | > 200 µM | > 200 µM | > 200 µM | > 25 µM | 0.25 µM |  |  |  |  |  | 
O=S(=O)(NCC1(Cc2ccc(CCO)cc2)CCC1)c1c(F)c(F)c(F)c(F)c1F [Example 66] |  |  |  |  |  |  | > 200 µM | > 200 µM | > 200 µM | > 200 µM | > 200 µM | 0.393 µM

Now from value to molecule, other results behind:

IC50 [1] | IC50 [2] | IC50 [3] | IC50 [4] | IC50 [5] | IC50 [6] | SMILES | IC50 [1, 7] | IC50 [2, 8] | IC50 [3, 9] | IC50 [4, 10] | IC50 [5, 11] | IC50 [6, 12]
> 200 µM | > 200 µM | > 200 µM | > 200 µM | > 200 µM | 3.5 µM | O=S(=O)(NCC1(Cc2ccc(CCO)cc2)CCCC1)c1cccc(Cl)c1 [Example 34] |  |  |  |  |  | 
> 200 µM | > 200 µM | > 200 µM | > 200 µM | > 200 µM | 0.297 µM | O=S(=O)(NCC1(Cc2ccc(CCO)cc2)CCCC1)c1ccc(Cl)c(Cl)c1 [Example 45] |  |  |  |  |  | 
> 200 µM | > 200 µM | > 200 µM | > 200 µM | > 200 µM | 0.179 µM | O=S(=O)(NCC1(Cc2ccc(CCO)cc2)CCCC1)c1ccc(Cl)cc1Cl [Example 46] |  |  |  |  |  | 
> 200 µM | > 200 µM | > 200 µM | > 200 µM | > 200 µM | 3.16 µM | O=S(=O)(NCC1(Cc2ccc(CCO)cc2)CCCC1)c1cccc(C(F)(F)F)c1 [Example 50] |  |  |  |  |  | 
> 200 µM | > 200 µM | > 200 µM | > 200 µM | > 200 µM | 4.06 µM | Cc1ccc(S(=O)(=O)NCC2(Cc3ccc(CCO)cc3)CCCC2)cc1 [Example 59] |  |  |  |  |  | 
> 200 µM | > 200 µM | > 200 µM | > 200 µM | > 200 µM | 6.22 µM | O=S(=O)(NCC1(Cc2ccc(CCO)cc2)CCCC1)c1cc(Cl)cc(Cl)c1 [Example 62] |  |  |  |  |  | 
> 200 µM | > 200 µM | > 200 µM | > 200 µM | > 200 µM | 6.56 µM | Cc1cccc(S(=O)(=O)NCC2(Cc3ccc(CCO)cc3)CCCC2)c1 [Example 63] |  |  |  |  |  | 
